Reference: patent US20240199546A1, “INHIBITORS OF SOLUTE CARRIER FAMILY 6A MEMBER 19 (SLC6A19) AND METHODS OF USE THEREOF” (Maze Therapeutics, Inc., priority 2022, published 2024)

Legend:
human SLC6A19 and TMEM27 [1] = biological target: T1, human SLC6A19 and TMEM27 (Homo sapiens, UniProt Q695T7); assay: Radiolabelled (3H) leucine uptake in CHO cells with doxycycline-inducible expression of human SLC6A19 and TMEM27 (Example B-1); format: cell-based; details: CHO cells with doxycycline-inducible expression of human SLC6A19 and TMEM27, read-out: SLC6A19_Radioligand Uptake Assay IC50
T1 construct: expressed in transfected cells
T1 sequence (Q695T7 1-634): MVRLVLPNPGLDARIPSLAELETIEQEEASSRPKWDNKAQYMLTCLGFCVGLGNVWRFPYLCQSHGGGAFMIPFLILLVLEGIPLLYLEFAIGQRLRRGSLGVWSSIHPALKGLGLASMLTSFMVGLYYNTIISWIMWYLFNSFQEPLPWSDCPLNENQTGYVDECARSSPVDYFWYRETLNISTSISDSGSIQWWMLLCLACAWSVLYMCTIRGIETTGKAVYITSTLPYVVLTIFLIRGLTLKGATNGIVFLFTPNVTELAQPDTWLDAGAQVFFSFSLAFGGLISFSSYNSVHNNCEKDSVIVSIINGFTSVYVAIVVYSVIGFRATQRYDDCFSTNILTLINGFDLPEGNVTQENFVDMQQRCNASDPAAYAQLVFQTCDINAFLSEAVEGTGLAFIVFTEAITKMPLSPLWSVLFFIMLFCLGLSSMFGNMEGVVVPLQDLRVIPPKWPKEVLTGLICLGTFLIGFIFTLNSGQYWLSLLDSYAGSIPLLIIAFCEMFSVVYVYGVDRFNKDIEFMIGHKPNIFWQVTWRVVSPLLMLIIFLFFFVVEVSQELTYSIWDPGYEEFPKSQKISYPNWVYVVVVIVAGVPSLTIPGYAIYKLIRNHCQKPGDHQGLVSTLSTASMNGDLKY
T1 sequence (Q9HBJ8 15-222 partner): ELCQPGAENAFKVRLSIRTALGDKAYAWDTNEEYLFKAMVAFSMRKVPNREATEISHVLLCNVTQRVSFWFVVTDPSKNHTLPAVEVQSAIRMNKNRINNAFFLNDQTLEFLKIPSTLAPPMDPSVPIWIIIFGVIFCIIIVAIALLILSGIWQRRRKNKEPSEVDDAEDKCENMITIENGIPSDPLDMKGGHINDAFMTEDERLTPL
How it was run: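 CHO cells were induced with doxycycline for 18 h at 37 °C, washed in HBSS, then exposed to compounds for 1 h: 8-point, 3-fold dilutions in duplicate, 0.5% DMSO final. Uptake measured by scintillation counting after 2 h shaking. Activity normalized with positive control as 0% and DMSO as 100%.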

human SLC6A19 and TMEM27 [2] = biological target: T1, human SLC6A19 and TMEM27; assay: 13C6,15N-isoleucine uptake in CHO cells with doxycycline-inducible expression of human SLC6A19 and TMEM27, RapidFire mass spectrometry (Example B-2); format: cell-based; details: read-out: SLC6A19_RapidFire Uptake Assay IC50
How it was run: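 Read-out is RapidFire mass-spec peak area of 13C6,15N-isoleucine taken up over 20 min at 37 °C, after 20 min compound pre-exposure in pH 7.2 HEPES-buffered saline. Cells: doxycycline-induced CHO co-expressing human SLC6A19 and TMEM27; compounds as duplicate 10-point 2-fold dilutions, positive control setting 0% activity.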

| SMILES | IC50 (human SLC6A19 and TMEM27 [1]) [µM] | IC50 (human SLC6A19 and TMEM27 [2]) [µM] |
| --- | --- | --- |
| Cc1nc(COc2cc3[nH]c(CNC(=O)C(C)C)cc3cc2F)co1 [Compound 551, N-((5-fluoro-6-((2-methyloxazol-4-yl)methoxy)-1H-indol-2-yl)methyl)isobutyramide] | 0.954 | 1.76 |
| CC1(C(=O)NCc2cc3cc(Cl)c(CCn4cccn4)cc3[nH]2)CC1 [Compound 590, N-((6-(2-(1H-pyrazol-1-yl)ethyl)-5-chloro-1H-indol-2-yl)methyl)-1-methylcyclopropane-1-carboxamide] | 0.145 | 0.0518 |
| CC1(C(=O)NCc2cc3cc(F)c(CCc4ccon4)cc3[nH]2)CC1 [Compound 592, N-((5-fluoro-6-(2-(isoxazol-3-yl)ethyl)-1H-indol-2-yl)methyl)-1-methylcyclopropane-1-carboxamide] | 0.163 | 0.0931 |
| O=C(NCc1cc2cc(F)c(CCc3ccon3)cc2[nH]1)N1CCC1 [Compound 602, N-((5-fluoro-6-(2-(isoxazol-3-yl)ethyl)-1H-indol-2-yl)methyl)azetidine-1-carboxamide] | 0.82 | 0.609 |
| O=C(NCc1cc2cc(F)c(CCc3ccon3)cc2[nH]1)N1CCCC1 [Compound 603, N-((5-fluoro-6-(2-(isoxazol-3-yl)ethyl)-1H-indol-2-yl)methyl)pyrrolidine-1-carboxamide] | 0.345 | 0.263 |
| CC1(C(=O)NCc2cc3cc(Cl)c(CNc4ccon4)cc3[nH]2)CC1 [Compound 608, N-((5-chloro-6-((isoxazol-3-ylamino)methyl)-1H-indol-2-yl)methyl)-1-methylcyclopropane-1-carboxamide] | 0.304 | 0.457 |
| COC(=O)NCc1cc2cc(Cl)c(OCc3cscn3)cc2[nH]1 [Compound 624, methyl ((5-chloro-6-(thiazol-4-ylmethoxy)-1H-indol-2-yl)methyl)carbamate] | 0.104 | 0.0309 |
| CN(Cc1cn[nH]c1)C(=O)NCc1cc2ccc(OCc3ccon3)cc2[nH]1 [Compound 627, 1-((1H-pyrazol-4-yl)methyl)-3-((6-(isoxazol-3-ylmethoxy)-1H-indol-2-yl)methyl)-1-methylurea] | > 8.73 | 12.1 |
| CN(Cc1cn[nH]c1)C(=O)NCc1cc2ccc(OCc3cscn3)cc2[nH]1 [Compound 628, 1-((1H-pyrazol-4-yl)methyl)-1-methyl-3-((6-(thiazol-4-ylmethoxy)-1H-indol-2-yl)methyl)urea] | 2.67 | 3.02 |
| COc1cc2cc(CNC(=O)C3(C)CC3)[nH]c2cc1CCc1ccon1 [Compound 630, N-((6-(2-(isoxazol-3-yl)ethyl)-5-methoxy-1H-indol-2-yl)methyl)-1-methylcyclopropane-1-carboxamide] | 0.156 | 0.113 |
| COc1cc2cc(CNC(=O)C3(C)CC3)[nH]c2cc1CCc1cscn1 [Compound 631, N-((5-methoxy-6-(2-(thiazol-4-yl)ethyl)-1H-indol-2-yl)methyl)-1-methylcyclopropane-1-carboxamide] | 0.21 | 0.149 |
| CC1(C(=O)NCc2cc3cc(Cl)c(OCc4cn5ccccc5n4)cc3[nH]2)CC1 [Compound 632, N-((5-chloro-6-(imidazo[1,2-a]pyridin-2-ylmethoxy)-1H-indol-2-yl)methyl)-1-methylcyclopropane-1-carboxamide] | 1.47 | > 2.05 |
| CC1(C(=O)NCc2cc3cc(Cl)c(OCC4CCC4)cc3[nH]2)CC1 [Compound 634, N-((5-chloro-6-(cyclobutylmethoxy)-1H-indol-2-y1)methyl)-1-methylcyclopropane-1-carboxamide] | 0.404 | 0.168 |
| CC1(C(=O)NCc2cc3cc(C(F)F)c(OCc4cscn4)cc3[nH]2)CC1 [Compound 645, N-((5-(difluoromethyl)-6-(thiazol-4-ylmethoxy)-1H-indol-2-yl)methyl)-1-methylcyclopropane-1-carboxamide] | 0.955 | 0.524 |
| CC1(C(=O)NCc2cc3cc(CC(F)(F)F)c(OCc4cscn4)cc3[nH]2)CC1 [Compound 648, 1-methyl-N-((6-(thiazol-4-ylmethoxy)-5-(2,2,2-trifluoroethyl)-1H-indol-2-yl)methyl)cyclopropane-1-carboxamide] | 0.785 | 0.344 |
| CC1(C(=O)NCc2cc3cc(CC(F)(F)F)c(OCc4ccon4)cc3[nH]2)CC1 [Compound 649, N-((6-(isoxazol-3-ylmethoxy)-5-(2,2,2-trifluoroethyl)-1H-indol-2-yl)methyl)-1-methylcyclopropane-1-carboxamide] | 0.326 | 0.217 |
